# Assays:
# HLA-DRB1*13 = experiment: HLA restriction with peptide-pulsed partially matched LCL (IFN-γ ELISA); format: cell-based, human; settings: for Presentation / binding by HLA-DRB1*13: 10^−3 to 1 ug/ml peptide
# Protocol: (§1) To evaluate the utility of the Crf1 p41 epitope for potential clinical application, we defined the HLA restriction of Crf1 p41-specific CD4^+ T clones from different donors by stimulation with peptide-pulsed partially matched LCLs. […] As presentation of the Crf1 p41 peptide could also be mediated by other MHC class II alleles, we verified the HLA restriction by stimulation of PBMC from additional donors.
# (§2) HLA restriction was analyzed with partially matched allogeneic EBV-lymphoblastoid cell lines (LCL) (provided by Patricia Comoli and Inge Jedema) pulsed with 10^−3 to 1 ug/ml peptide using IFN-γ ELISA.
# HLA-DRB1*04 = experiment: as above; format: cell-based, human; settings: 10^−3 to 1 ug/ml peptide
# Protocol: as §1, §2
# HLA-DRB1*03 = experiment: as above; format: cell-based, human; settings: 10^−3 to 1 ug/ml peptide
# Protocol: as §1, §2
# PBMC = experiment: In vitro expansion of Crf1 p41-specific T-cell lines from PBMC; format: cell-based, human
# Protocol: Cross-reactive Crf1 p41-specific T-cells show a diverse T-cell receptor (TCR) Vβ repertoire, multiple MHC class II restriction and high proliferative capacity. (a) The TCR Vβ repertoire of p41-specific CD4^+ T-cell clones is divers in different donors. TCR chains were determined by flowcytometry, PCR and/or nucleotide sequence analysis. *TCRs differ on the level of nucleotide sequence. Nomenclature is according to Wei et al^53. (b) The Crf1 p41 epitope can be presented by HLA-DRB1*03, 04 and 13 and allows cross-recognition between HLA-DRB1*03 and 13. The HLA restriction of Crf1 p41-specific T-cell clones from 5 different donors was determined by stimulation with peptide-pulsed unmatched or partially matched LCL. IFN-γ values are given after subtraction of the negative control. (c) Crf1 p41-specific T-cells are not terminally differentiated and can be rapidly expanded in vitro. […] T-cells were restimulated with autologous peptide-pulsed monocytes on day 7 and culture medium was supplemented with IL-2, IL-7 and IL-15 (representative experiments, n≧3).
# For T-cell expansion, 1×10^7 PBMC were stimulated with 5 μg/ml peptide in the presence of 5 U/ml IL-2. On d7, T-cells were restimulated with autologous peptide-pulsed monocytes at a R:S ratio of 5:1 and 10 ng/ml IL-7 and IL-15 (R&D systems) were supplemented every other day until d14.
# The TCR Vβ repertoire was analyzed flowcytometrically (IOTest Beta Mark Kit, Beckman Coulter), by PCR^43 and sequence analysis^44. A PE-conjugated Crf1 p41-specific HLA-DRB1*0401 MHC class II tetramer was used according to the manufacturers' instructions (Beckman Coulter).
# [1] = tested on: A. fumigatus cell extract; experiment: Peptide-specific T-cell clones stimulated with DC incubated with A. fumigatus cell extract (IFN-γ); format: cell-based, Aspergillus fumigatus; settings: extract 20 μg/ml, DC incubated 24 h
# Protocol: (§3) T-cell cloning was performed as described in below. T-cell clones were stimulated either with mature peptide-pulsed (2.5 μg/ml) or Crf1 mRNA-transfected DC, immature DC incubated for 24 h with A. fumigatus cell extract (20 μg/ml) in the presence of cytokine maturation cocktail or immature DC incubated for 24 h with inactivated A. fumigatus or C. albicans fungus (multiplicity of infection 3) in a R:S ratio of 5:1.
# (§4) Fungal extracts were generated as described^48 and protein content was measured by Bradford protein assay (Perbio Science) according to the manufacturers' instructions. For inactivated fungus Aspergillus conidia were inoculated in growth medium^49 and cultured for 0, 4, 8 or 12 h. Candida species were cultured for 24 h. Fungi were inactivated with 70% ethanol. Ethanol-inactivated fungi and extracts were validated for sterility by subculturing on Sabouraud dextrose agar.
# CD4^+ spleen cells = experiment: Proliferation assay of purified CD4+ spleen cells ([3H]thymidine); format: cell-based; settings: mice untreated or vaccinated with A. fumigatus or C. albicans; 5 μg/mL peptide, 3 days
# Protocol: A. fumigatus Crf1 protein mediates cross-protection to C. albicans. Mice were injected intranasally with resting A. fumigatus conidia 14 days before infection, or with purified Crf1 protein and murine CpG oligodeoxynucleotide 1862 14, 7 and 3 days before intragastric infection with C. albicans. Note (a) the reduced inflammatory cell recruitment and acanthosis in mice vaccinated with A. fumigatus conidia or Crf1 protein as opposed to control mice shown in FIG. 5a and c and (b) the increase in protective TH1 and regulatory T-cell transcription factors and cytokine levels. […] The results are expressed as mean cpm±SEM of triplicate cultures. […]
# DC (1×10^5) and CD4^+ T-cells (5×10^5) were purified from spleens of mice untreated or vaccinated with A. fumigatus or C. albicans, by magnetic separation of MicroBeads (Miltenyi Biotec) and cocultured in round-bottom, 96-well plates in 200 μl complete medium, with and without anti-CD3ε antibody (clone 145-2C11; BD PharMingen), heat-inactivated Aspergillus or Candida (at a cell:fungi ratio of 2:1), 5 μg/mL of Crf1 p41 peptide. […] Incorporation into cellular DNA was measured by liquid scintillation counting. The results are expressed as mean cpm±SEM of triplicate cultures.
# C. albicans = experiment: Peptide-specific T-cell clones stimulated with inactivated C. albicans yeast; format: cell-based, Candida albicans
# Text: A. fumigatus Crf1 p41-specific T-cell clones are cross-reactive to C. albicans and can be activated by different clinical isolates of both fungi. (a) All A. fumigatus Crf1 p41-specific T-cell clones from different donors respond to stimulation with inactivated C. albicans yeast. IFN-γ values are given after subtraction of the negative control. Shown is 1 clone per antigen and donor (representative experiments, n≧3). (b) A. fumigatus Crf1 p41-specific T-cell clones respond to different inactivated clinical isolates of germinating A. fumigatus conidia and C. albicans yeast.
# as §3, §4
sequence,measurement,setting,value
"HTYTIDWTKDAVTWS (Peptide found in the Crf1 protein of Aspergillus fumigatus) [p41, Crf1 aa 161-175]",Cross-recognition between HLA-DRB1*03 and 13,HLA-DRB1*13,in some instances DRB1*03-restricted TCRs might be able to recognize p41 peptide presented by DRB1*13 and vice versa
same,Presentation / binding by HLA-DRB1*13,HLA-DRB1*13,"presentation of the Crf1 p41 is mediated by HLA-DRB1*03, 04 and 13"
same,Presentation / binding by HLA-DRB1*13,HLA-DRB1*13; listed as HTYTIDWTKDAVTWS,"has been shown to bind to HLA-DRB1*03, HLA-DRB1*13 and HLA-DRB1*04"
same,Presentation / binding by HLA-DRB1*04,HLA-DRB1*04,"presentation of the Crf1 p41 is mediated by HLA-DRB1*03, 04 and 13"
same,Presentation / binding by HLA-DRB1*04,HLA-DRB1*04; listed as HTYTIDWTKDAVTWS,"has been shown to bind to HLA-DRB1*03, HLA-DRB1*13 and HLA-DRB1*04"
same,Presentation / binding by HLA-DRB1*03,HLA-DRB1*03,"presentation of the Crf1 p41 is mediated by HLA-DRB1*03, 04 and 13"
same,Presentation / binding by HLA-DRB1*03,HLA-DRB1*03; listed as HTYTIDWTKDAVTWS,"has been shown to bind to HLA-DRB1*03, HLA-DRB1*13 and HLA-DRB1*04"
same,Frequency of antigen-specific cells by HLA-DRB1*04 restricted tetramer (median),PBMC; after 14 days expansion,50.6%
same,Frequency of antigen-specific cells by HLA-DRB1*04 restricted tetramer (range),PBMC; after 14 days expansion,42-63%
same,Cell number after expansion (median),PBMC; from 10^7 PBMC within 14 days,3.5×10^7 cells
same,Cell number after expansion (range),PBMC; from 10^7 PBMC within 14 days,3−4.9×10^7 cells
same,Cytokine production and proliferation of expanded T-cell lines,PBMC; upon antigen stimulation,produced high amounts of TH1 cytokines and proliferated upon antigen stimulation
same,Response of peptide-specific T-cell clones to A. fumigatus extract,[1],All Crf1 p41-specific T-cell clones of all 5 donors
same,Antigen-specific proliferation of CD4+ spleen cells,CD4^+ spleen cells,cross-protection could be mediated by T-cells recognizing the same epitope p41
same,Cross-reactivity with different clinical isolates of A. fumigatus and C. albicans,C. albicans; clinical isolates,could further confirm this cross-reactivity of the Crf1 p41 epitope
same,Cross-reactivity of peptide-specific T-cell clones to C. albicans,"C. albicans; inactivated C. albicans yeast, established strain",All p41-specific T-cell clones of all donors recognized and responded to C. albicans

# Source: patent US20130315920A1, “Cross Protective Epitopes of Aspergillus Fumigatus and Candida Albicans” (Cell Medica Limited, priority 2010, published 2013)
